Experimental data: patent US9833497B2, “Human originated EGF domain proteins and use of the same” (CHENGDU SOURCEBIO LIMITED-LIABILITY COMPANY, priority 2013, dated 2017)

Experiments:
Format in all cases: cell-based
E. coli BL21 = assay: MIC against Gram-negative bacteria: E. coli BL21; details: 5×10^5 CFU/mL
Description: (§1) 1. Gram-negative bacteria, such as E. coli BL21, Pseudomonas aeruginosa, Klebsiella pneumonia, Enterobacter cloacae, Aeromonas hydrophila, Citrobacter diversus, Moraxella catarrhalis, Proteus mirabilis, Proteus vulgaris, Serratia marcescens, etc were streaked on solid LB medium and cultured respectively. Then, typical clones were picked, inoculated into common liquid LB medium respectively, and cultured at 37° C. with shaking at 185 rpm until the McFarland specific turbidity was 0.5. The bacterial culture of each of Gram-negative bacteria was centrifuged at 4000×g for 3 min, the supernatant was discarded, and the thalli were resuspended with fresh LB medium.
(§2) 2. The above-mentioned bacterial suspensions were diluted and inoculated into 96-well plates with the final concentration of the bacterial suspension being 5×10^5 CFU/mL per well.
(§3) 3. Each of the purified human-originated EGF domain proteins (PRT1 to PRT1498 in Table 1) was added to each of the above wells and subjected to two-fold serial dilution in concentration. Three parallel wells were set up for each concentration in the gradient.
(§4) 4. The above-mentioned 96-well plates were placed and cultured at 37° C. in shaking incubator shaking at 175 rpm. […] The minimal inhibitory concentration MIC is defined as the lowest concentration of the recombinant protein at which there is no growth of the bacteria.

Proteus mirabilis = assay: MIC against Gram-negative bacteria: Proteus mirabilis; details: 5×10^5 CFU/mL
Description: as §1, §2, §3, §4

E. coli DH5α = assay: Antibacterial activity: MIC and growth curve against E. coli DH5α in 96-well plate; details: minimal inhibitory concentration against E. coli DH5α; 96-well plate, 5×10^5 CFU/mL, 37° C., judged after 8 h
Description: 1. E. coli DH5α was exemplified. E. coli DH5α was streaked and cultured on LB solid medium. Then, a typical clone was picked and inoculated into common LB liquid medium, cultured at 37° C. with shaking at 185 rpm until the logarithmic growth phase was reached (OD600 of about 0.5). The bacterial culture was centrifuged at 4000×g for 3 min, the supernatant was discarded, and the thalli were resuspended with fresh LB medium.
2. The above-mentioned bacterial suspension was diluted and inoculated into a 96-well plate with the total volume of 100 μL per well and a bacterial count of 5×10^5 CFU/mL.
3. The recombinant protein hF VII-EGF1 was added to the above-mentioned wells with the final protein concentration in the well of the highest protein concentration being 50 μg/mL. Basing on this final concentration, a two-fold serial dilution was performed till a protein concentration gradient consisting of 50, 25, and 12.5 μg/mL was set up. Three parallel wells were set up for each concentration in the gradient.
4. The above-mentioned 96-well plate was placed and cultured at 37° C. in shaking incubator shaking at 175 rpm. Samples were taken every 30 min, the absorbance values were determined at 600 nm wavelength under a ultra violet spectrophotometer, and an inhibition curve was plotted. […] The minimal inhibitory concentration MIC is defined as the lowest concentration of the recombinant protein at which there is no growth of the bacteria.
According to the experimental procedures in Example 14, the minimal inhibitory concentrations (MIC, μg/mL) of the other human-originated EGF domain proteins (PRT2 to PRT1498 in Table 1) for E. coli DH5α were determined.

Citrobacter diversus = assay: MIC against Gram-negative bacteria: Citrobacter diversus; details: 5×10^5 CFU/mL
Description: as §1, §2, §3, §4

Moraxella catarrhalis = assay: MIC against Gram-negative bacteria: Moraxella catarrhalis; details: 5×10^5 CFU/mL
Description: as §1, §2, §3, §4

Aeromonas hydrophila = assay: MIC against Gram-negative bacteria: Aeromonas hydrophila; details: 5×10^5 CFU/mL
Description: as §1, §2, §3, §4

Klebsiella pneumonia = assay: MIC against Gram-negative bacteria: Klebsiella pneumonia; details: 5×10^5 CFU/mL
Description: as §1, §2, §3, §4

Proteus vulgaris = assay: MIC against Gram-negative bacteria: Proteus vulgaris; details: 5×10^5 CFU/mL
Description: as §1, §2, §3, §4

Enterobacter cloacae = assay: MIC against Gram-negative bacteria: Enterobacter cloacae; details: 5×10^5 CFU/mL
Description: as §1, §2, §3, §4

Serratia marcescens = assay: MIC against Gram-negative bacteria: Serratia marcescens; details: 5×10^5 CFU/mL
Description: as §1, §2, §3, §4

Pseudomonas aeruginosa = assay: MIC against Gram-negative bacteria: Pseudomonas aeruginosa; details: 5×10^5 CFU/mL
Description: as §1, §2, §3, §4

[1] = 10 h cultivation at 37° C., two-fold serial dilution
[2] = E. coli BL21, 10 h cultivation at 37° C.
[3] = P. mirabilis, 10 h cultivation at 37° C.
[4] = C. diversus, 10 h cultivation at 37° C.
[5] = M. catarrhalis, 10 h cultivation at 37° C.
[6] = A. hydrophila, 10 h cultivation at 37° C.
[7] = K. pneumonia, 10 h cultivation at 37° C.
[8] = P. vulgaris, 10 h cultivation at 37° C.
[9] = E. cloacae, 10 h cultivation at 37° C.
[10] = S. marcescens, 10 h cultivation at 37° C.
[11] = P. aeruginosa, 10 h cultivation at 37° C.

PRT1067 (KLTSCATNASICGDEARCVRTEKAAYCACRSGFHTVPGQPGCQ; listed as Homo sapiens)
MIC E. coli BL21 (E. coli BL21; [1]): 50 µg/mL | MIC P. mirabilis (Proteus mirabilis; [1]): 25 µg/mL | MIC (E. coli DH5α): 25 µg/mL | MIC C. diversus (Citrobacter diversus; [1]): 25 µg/mL | MIC M. catarrhalis (Moraxella catarrhalis; [1]): 12.5 µg/mL | MIC A. hydrophila (Aeromonas hydrophila; [1]): 25 µg/mL | MIC K. pneumonia (Klebsiella pneumonia; [1]): 12.5 µg/mL | MIC P. vulgaris (Proteus vulgaris; [1]): 50 µg/mL | MIC E. cloacae (Enterobacter cloacae; [1]): 25 µg/mL | MIC S. marcescens (Serratia marcescens; [1]): 25 µg/mL | MIC P. aeruginosa (Pseudomonas aeruginosa; [1]): 25 µg/mL

PRT1114 (PSKECSLNVTCLDGSPCEGGSPAANCSCLEGLAGQRCQ; listed as Homo sapiens)
MIC E. coli BL21 (E. coli BL21; [1]): 12.5 µg/mL | MIC P. mirabilis (Proteus mirabilis; [1]): 50 µg/mL | MIC (E. coli DH5α): 25 µg/mL | MIC C. diversus (Citrobacter diversus; [1]): 12.5 µg/mL | MIC M. catarrhalis (Moraxella catarrhalis; [1]): 25 µg/mL | MIC A. hydrophila (Aeromonas hydrophila; [1]): 25 µg/mL | MIC K. pneumonia (Klebsiella pneumonia; [1]): 50 µg/mL | MIC P. vulgaris (Proteus vulgaris; [1]): 25 µg/mL | MIC E. cloacae (Enterobacter cloacae; [1]): 25 µg/mL | MIC S. marcescens (Serratia marcescens; [1]): 12.5 µg/mL | MIC P. aeruginosa (Pseudomonas aeruginosa; [1]): 25 µg/mL

PRT595 (CSCHASGVSPMECPPGGGACLCDPVTGACPCLPNVTGLACDRCADGYWNLVPGRGCQS; listed as Homo sapiens)
MIC E. coli BL21 (E. coli BL21; 96-well plate, 37° C., 10 h): 50 µg/mL | MIC P. mirabilis (Proteus mirabilis; 96-well plate, 37° C., 10 h): 12.5 µg/mL | MIC (E. coli DH5α): 12.5 µg/mL | MIC C. diversus (Citrobacter diversus; 96-well plate, 37° C., 10 h): 12.5 µg/mL | MIC M. catarrhalis (Moraxella catarrhalis; 96-well plate, 37° C., 10 h): 50 µg/mL | MIC A. hydrophila (Aeromonas hydrophila; 96-well plate, 37° C., 10 h): 50 µg/mL | MIC K. pneumonia (Klebsiella pneumonia; 96-well plate, 37° C., 10 h): 50 µg/mL | MIC P. vulgaris (Proteus vulgaris; 96-well plate, 37° C., 10 h): 50 µg/mL | MIC E. cloacae (Enterobacter cloacae; 96-well plate, 37° C., 10 h): 12.5 µg/mL | MIC S. marcescens (Serratia marcescens; 96-well plate, 37° C., 10 h): 25 µg/mL | MIC P. aeruginosa (Pseudomonas aeruginosa; 96-well plate, 37° C., 10 h): 12.5 µg/mL

PRT482 (ECIDDETEEICGGHGKCYCGNCYCKAGWHGDKCE; listed as Homo sapiens)
MIC against E. coli BL21 (E. coli BL21; 96-well plate, 37° C., 10 h): 12.5 µg/mL | MIC against P. mirabilis (Proteus mirabilis; 96-well plate, 37° C., 10 h): 25 µg/mL | MIC (E. coli DH5α): 50 µg/mL | MIC against C. diversus (Citrobacter diversus; 96-well plate, 37° C., 10 h): 25 µg/mL | MIC against M. catarrhalis (Moraxella catarrhalis; 96-well plate, 37° C., 10 h): 12.5 µg/mL | MIC against A. hydrophila (Aeromonas hydrophila; 96-well plate, 37° C., 10 h): 50 µg/mL | MIC against K. pneumonia (Klebsiella pneumonia; 96-well plate, 37° C., 10 h): 12.5 µg/mL | MIC against P. vulgaris (Proteus vulgaris; 96-well plate, 37° C., 10 h): 50 µg/mL | MIC against E. cloacae (Enterobacter cloacae; 96-well plate, 37° C., 10 h): 25 µg/mL | MIC against S. marcescens (Serratia marcescens; 96-well plate, 37° C., 10 h): 25 µg/mL | MIC against P. aeruginosa (Pseudomonas aeruginosa; 96-well plate, 37° C., 10 h): 50 µg/mL

PRT125 (CTGHCAHPRLPCFHGGRCVERYSYYTCDCDLTAFDGPYCN; listed as Homo sapiens)
MIC (μg/mL) E. coli BL21 (E. coli BL21; E. coli BL21, 96-well plate, 37° C., 10 h): 12.5 µg/mL | MIC (μg/mL) P. mirabilis (Proteus mirabilis; Proteus mirabilis, 96-well plate, 37° C., 10 h): 25 µg/mL | MIC (E. coli DH5α): 100 µg/mL | MIC (μg/mL) C. diversus (Citrobacter diversus; Citrobacter diversus, 96-well plate, 37° C., 10 h): 25 µg/mL | MIC (μg/mL) M. catarrhalis (Moraxella catarrhalis; Moraxella catarrhalis, 96-well plate, 37° C., 10 h): 12.5 µg/mL | MIC (μg/mL) A. hydrophila (Aeromonas hydrophila; Aeromonas hydrophila, 96-well plate, 37° C., 10 h): 50 µg/mL | MIC (μg/mL) K. pneumonia (Klebsiella pneumonia; Klebsiella pneumonia, 96-well plate, 37° C., 10 h): 12.5 µg/mL | MIC (μg/mL) P. vulgaris (Proteus vulgaris; Proteus vulgaris, 96-well plate, 37° C., 10 h): 50 µg/mL | MIC (μg/mL) E. cloacae (Enterobacter cloacae; Enterobacter cloacae, 96-well plate, 37° C., 10 h): 12.5 µg/mL | MIC (μg/mL) S. marcescens (Serratia marcescens; Serratia marcescens, 96-well plate, 37° C., 10 h): 25 µg/mL | MIC (μg/mL) P. aeruginosa (Pseudomonas aeruginosa; Pseudomonas aeruginosa, 96-well plate, 37° C., 10 h): 12.5 µg/mL

PRT837 (RFSLCPGGCQSHGQCQPPGVCACEPGWGGPD; listed as Homo sapiens)
MIC (μg/mL) E. coli BL21 (E. coli BL21; [2]): 12.5 µg/mL | MIC (μg/mL) P. mirabilis (Proteus mirabilis; [3]): 12.5 µg/mL | MIC (E. coli DH5α): 25 µg/mL | MIC (μg/mL) C. diversus (Citrobacter diversus; [4]): 12.5 µg/mL | MIC (μg/mL) M. catarrhalis (Moraxella catarrhalis; [5]): 25 µg/mL | MIC (μg/mL) A. hydrophila (Aeromonas hydrophila; [6]): 25 µg/mL | MIC (μg/mL) K. pneumonia (Klebsiella pneumonia; [7]): 25 µg/mL | MIC (μg/mL) P. vulgaris (Proteus vulgaris; [8]): 12.5 µg/mL | MIC (μg/mL) E. cloacae (Enterobacter cloacae; [9]): 12.5 µg/mL | MIC (μg/mL) S. marcescens (Serratia marcescens; [10]): 12.5 µg/mL | MIC (μg/mL) P. aeruginosa (Pseudomonas aeruginosa; [11]): 25 µg/mL

PRT878 (ADPLCAPARNPCANGGLCTVLAPGEVGCDCSHTGFGGKFCS; listed as Homo sapiens)
MIC (μg/mL) E. coli BL21 (E. coli BL21; [2]): 25 µg/mL | MIC (μg/mL) P. mirabilis (Proteus mirabilis; [3]): 50 µg/mL | MIC (E. coli DH5α): 50 µg/mL | MIC (μg/mL) C. diversus (Citrobacter diversus; [4]): 12.5 µg/mL | MIC (μg/mL) M. catarrhalis (Moraxella catarrhalis; [5]): 25 µg/mL | MIC (μg/mL) A. hydrophila (Aeromonas hydrophila; [6]): 50 µg/mL | MIC (μg/mL) K. pneumonia (Klebsiella pneumonia; [7]): 50 µg/mL | MIC (μg/mL) P. vulgaris (Proteus vulgaris; [8]): 25 µg/mL | MIC (μg/mL) E. cloacae (Enterobacter cloacae; [9]): 12.5 µg/mL | MIC (μg/mL) S. marcescens (Serratia marcescens; [10]): 12.5 µg/mL | MIC (μg/mL) P. aeruginosa (Pseudomonas aeruginosa; [11]): 12.5 µg/mL

PRT1369 (ASGSCPDDCNDQGRCVRGRCVCFPGYTGPSC; listed as Homo sapiens)
MIC against E. coli BL21 (E. coli BL21; [2]): 12.5 µg/mL | MIC against P. mirabilis (Proteus mirabilis; Proteus mirabilis, 10 h cultivation at 37° C.): 25 µg/mL | MIC (E. coli DH5α): 12.5 µg/mL | MIC against C. diversus (Citrobacter diversus; Citrobacter diversus, 10 h cultivation at 37° C.): 12.5 µg/mL | MIC against M. catarrhalis (Moraxella catarrhalis; Moraxella catarrhalis, 10 h cultivation at 37° C.): 12.5 µg/mL | MIC against A. hydrophila (Aeromonas hydrophila; Aeromonas hydrophila, 10 h cultivation at 37° C.): 12.5 µg/mL | MIC against K. pneumonia (Klebsiella pneumonia; Klebsiella pneumonia, 10 h cultivation at 37° C.): 12.5 µg/mL | MIC against P. vulgaris (Proteus vulgaris; Proteus vulgaris, 10 h cultivation at 37° C.): 12.5 µg/mL | MIC against E. cloacae (Enterobacter cloacae; Enterobacter cloacae, 10 h cultivation at 37° C.): 25 µg/mL | MIC against S. marcescens (Serratia marcescens; Serratia marcescens, 10 h cultivation at 37° C.): 25 µg/mL | MIC against P. aeruginosa (Pseudomonas aeruginosa; Pseudomonas aeruginosa, 10 h cultivation at 37° C.): 12.5 µg/mL
